According to article doi:10.1101/2024.08.19.608619, “Discovery of potent SARS-CoV-2 nsp3 macrodomain inhibitors uncovers lack of translation to cellular antiviral response” (bioRxiv, 2024):
Values joined by “and” are separate entries in the source; they are usually repeats but may differ in a detail not shown here. Identical values can stand only once. Like-named read-outs stand apart in the source and are kept apart here.

Legend:
[1] = target: SARS-CoV-2 nsp3-mac1 (Severe acute respiratory syndrome coronavirus 2, UniProt P0DTD1); assay: biochemical
[2] = system: kinase panel; assay: Eurofins kinase panel; assay type: biochemical; details: test compound 10 uM
[3] = system: iPSC pneumocytes; assay: iPSC pneumocytes cytotoxicity; assay type: cell-based; details: for perc_max_measured: highest measured response of the dose series; for perc_min_measured: lowest measured response of the dose series
Description: (§1) Supplement media-1.zip/Cytotoxicity.csv, table | column: cc10; cc50; perc_min_measured; perc_max_measured

[4] = in vitro; details: human; for CC50 at 24 h: HeLa-ACE2 cells (uninfected)
[5] = system: HeLa-ACE2 cells; details: read-out: 50.0, 1440 min
[6] = target: Nsp3-mac1 (Severe acute respiratory syndrome coronavirus 2, UniProt P0DTD1); assay: ADPr hydrolase assay (LC-MS/MS); assay type: biochemical, SARS-CoV-2; details: Nsp3-mac1 200 nM, αNAD+ 8 μM
Method: ADPr hydrolase activity assay was conducted in 96-well plate with pre-dispensed compounds in 8-point dose response starting from 4 μM (control wells were backfilled with DMSO). […] Nsp3-mac1 200 nM in final assay concentration was added to all wells besides “NAD+ alone” well. The plate was centrifuged at 1,500 rpm for 1 min, and then Incubated at room temperature for 15 min. After incubation, αNAD+ in final concentration of 8 μM were added to each well, and the plate was centrifuged again for 1 min. Then, the plate was incubated under shaking at room temperature for 2.45 h, followed by freezing at −80°C until LC-MS/MS analysis.
A 30-μl sample aliquot was mixed with 90 μl of methanol and 1μl of 50 μM 15N5-AMP (an internal standard). The mix was shaken for 10 min, then centrifuged (~21,000 g) for 5 min to precipitate the protein. […]
Mass detection was carried out using electrospray ionization in the positive mode. […] Analytes were detected using multiple reaction monitoring (MRM, m/z) with the following precursor and fragment masses at selected collision energy (eV, indicated in brackets): 560 > 136 (34) and 560 > 348 ([16]) for ADPR, 664 > 524 ([15]) and 664 > 541.7 ([15]) for αNAD+, 353.1 > 97 ([28]) and 353.1 > 141 ([20]) for […] (IS) m/z. […]

[7] = target: CYP1A2 (Homo sapiens, UniProt P05177); assay: CYP inhibition; assay type: in vitro ADME; details: human; isoform 1A2; In vitro CYP inhibition pooled
Chain of CYP1A2 (P05177 2-516): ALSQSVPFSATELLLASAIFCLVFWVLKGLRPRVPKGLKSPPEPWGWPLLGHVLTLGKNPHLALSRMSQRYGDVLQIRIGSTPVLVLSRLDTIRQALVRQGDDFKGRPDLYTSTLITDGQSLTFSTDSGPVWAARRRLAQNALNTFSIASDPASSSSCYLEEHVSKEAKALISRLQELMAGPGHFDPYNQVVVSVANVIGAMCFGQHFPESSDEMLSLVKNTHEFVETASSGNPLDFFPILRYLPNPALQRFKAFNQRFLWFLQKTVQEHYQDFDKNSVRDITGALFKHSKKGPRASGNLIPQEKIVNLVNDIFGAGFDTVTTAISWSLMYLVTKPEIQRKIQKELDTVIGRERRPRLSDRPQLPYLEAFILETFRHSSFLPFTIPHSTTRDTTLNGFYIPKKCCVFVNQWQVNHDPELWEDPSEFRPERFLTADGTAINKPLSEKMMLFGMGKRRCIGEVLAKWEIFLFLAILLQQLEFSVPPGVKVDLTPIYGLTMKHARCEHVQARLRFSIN
Description: (§2) Supplement media-1.zip/CYP_Inhibition.csv, table | column: ic50; potency

[8] = target: CYP2C19 (Homo sapiens, UniProt P33261); assay: CYP inhibition; assay type: in vitro ADME; details: human; isoform 2C19; In vitro CYP inhibition pooled
Chain of CYP2C19 (P33261 whole entry, canonical isoform): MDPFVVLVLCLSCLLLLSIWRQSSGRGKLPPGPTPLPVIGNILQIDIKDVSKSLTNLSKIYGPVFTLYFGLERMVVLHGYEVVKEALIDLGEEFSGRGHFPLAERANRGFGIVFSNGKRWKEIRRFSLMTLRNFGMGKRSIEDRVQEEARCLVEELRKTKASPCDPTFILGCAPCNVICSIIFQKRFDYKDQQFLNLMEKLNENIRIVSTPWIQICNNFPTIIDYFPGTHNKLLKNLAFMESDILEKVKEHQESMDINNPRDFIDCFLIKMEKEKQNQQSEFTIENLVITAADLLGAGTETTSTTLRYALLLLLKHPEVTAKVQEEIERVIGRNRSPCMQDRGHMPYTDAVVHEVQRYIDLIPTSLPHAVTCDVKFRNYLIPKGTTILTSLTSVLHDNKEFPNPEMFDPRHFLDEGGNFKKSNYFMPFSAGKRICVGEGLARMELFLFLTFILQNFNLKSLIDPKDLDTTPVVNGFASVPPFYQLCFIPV
Description: as §2

[9] = target: CYP2C9 (Homo sapiens, UniProt P11712); assay: CYP inhibition; assay type: in vitro ADME; details: human; isoform 2C9; In vitro CYP inhibition pooled
Chain of CYP2C9 (P11712 whole entry, canonical isoform): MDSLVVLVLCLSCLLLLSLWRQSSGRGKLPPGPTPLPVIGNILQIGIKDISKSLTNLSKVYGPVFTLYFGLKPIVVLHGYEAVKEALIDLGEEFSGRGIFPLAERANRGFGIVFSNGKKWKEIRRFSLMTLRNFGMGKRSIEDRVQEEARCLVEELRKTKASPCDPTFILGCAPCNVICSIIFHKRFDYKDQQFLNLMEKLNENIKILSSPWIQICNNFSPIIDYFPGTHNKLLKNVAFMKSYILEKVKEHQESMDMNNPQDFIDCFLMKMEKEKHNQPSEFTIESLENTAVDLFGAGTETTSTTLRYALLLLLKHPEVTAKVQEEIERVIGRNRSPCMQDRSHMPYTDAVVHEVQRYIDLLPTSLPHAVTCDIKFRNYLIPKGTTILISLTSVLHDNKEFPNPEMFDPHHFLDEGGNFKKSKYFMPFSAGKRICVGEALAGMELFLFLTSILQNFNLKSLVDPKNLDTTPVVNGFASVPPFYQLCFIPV
Description: as §2

[10] = target: CYP2D6 (Homo sapiens, UniProt P10635); assay: CYP inhibition; assay type: in vitro ADME; details: human; isoform 2D6; In vitro CYP inhibition pooled
Chain of CYP2D6 (P10635 whole entry, canonical isoform): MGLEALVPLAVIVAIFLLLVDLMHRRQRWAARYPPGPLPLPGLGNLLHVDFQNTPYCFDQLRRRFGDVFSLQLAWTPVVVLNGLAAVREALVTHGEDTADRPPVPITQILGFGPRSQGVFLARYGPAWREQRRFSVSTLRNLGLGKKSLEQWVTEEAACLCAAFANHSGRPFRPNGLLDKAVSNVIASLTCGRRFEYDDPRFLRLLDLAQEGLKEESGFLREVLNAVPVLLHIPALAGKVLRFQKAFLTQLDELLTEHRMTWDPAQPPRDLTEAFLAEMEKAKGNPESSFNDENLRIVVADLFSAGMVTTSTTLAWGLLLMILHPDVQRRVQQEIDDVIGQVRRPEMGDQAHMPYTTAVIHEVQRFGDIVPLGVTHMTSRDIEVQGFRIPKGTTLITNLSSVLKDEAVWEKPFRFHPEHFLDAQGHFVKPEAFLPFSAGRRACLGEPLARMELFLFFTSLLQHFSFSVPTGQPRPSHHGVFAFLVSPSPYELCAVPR
Description: as §2

[11] = target: CYP3A4 (Homo sapiens, UniProt P08684); assay: CYP inhibition; assay type: in vitro ADME; details: human; isoform 3A4; In vitro CYP inhibition pooled
Chain of CYP3A4 (P08684 2-503): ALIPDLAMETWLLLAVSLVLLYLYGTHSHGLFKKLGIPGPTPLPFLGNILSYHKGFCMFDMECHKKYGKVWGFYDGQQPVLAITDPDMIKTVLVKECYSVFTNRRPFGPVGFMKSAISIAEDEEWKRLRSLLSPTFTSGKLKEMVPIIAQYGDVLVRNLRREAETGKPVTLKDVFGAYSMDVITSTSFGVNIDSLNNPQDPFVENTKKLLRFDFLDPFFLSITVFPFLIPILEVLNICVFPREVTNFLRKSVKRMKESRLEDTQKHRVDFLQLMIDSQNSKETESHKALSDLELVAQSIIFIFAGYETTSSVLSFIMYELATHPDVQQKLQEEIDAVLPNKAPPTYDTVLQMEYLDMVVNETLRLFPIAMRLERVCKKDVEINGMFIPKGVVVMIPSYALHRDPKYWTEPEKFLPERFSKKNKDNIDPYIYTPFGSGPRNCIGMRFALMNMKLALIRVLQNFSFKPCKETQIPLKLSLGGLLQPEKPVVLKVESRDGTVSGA
Description: as §2

[12] = Vero E6/TMPRSS2 cytotoxicity with P-gp inhibitor; assay type: cell-based; details: African green monkey, Vero E6/TMPRSS2 cells, with P-gp inhibitor (name and concentration not stated)
Description: as §1

[13] = target: hERG (Homo sapiens, UniProt Q12809); assay: In vitro CEREP profiling, Potassium Channel hERG (human)- [3H] Dofetilide; assay type: binding; parameters: purchased Eurofins Cerep (SafetyScreen44), recognised from the panel format; details: hERG potassium channel binding assay, probe [3H] Dofetilide, test compound concentration 10 uM, read-out: perc_inhibition, % inhibition of the binding of a ligand specific for each target
Chain of hERG (Q12809 whole entry): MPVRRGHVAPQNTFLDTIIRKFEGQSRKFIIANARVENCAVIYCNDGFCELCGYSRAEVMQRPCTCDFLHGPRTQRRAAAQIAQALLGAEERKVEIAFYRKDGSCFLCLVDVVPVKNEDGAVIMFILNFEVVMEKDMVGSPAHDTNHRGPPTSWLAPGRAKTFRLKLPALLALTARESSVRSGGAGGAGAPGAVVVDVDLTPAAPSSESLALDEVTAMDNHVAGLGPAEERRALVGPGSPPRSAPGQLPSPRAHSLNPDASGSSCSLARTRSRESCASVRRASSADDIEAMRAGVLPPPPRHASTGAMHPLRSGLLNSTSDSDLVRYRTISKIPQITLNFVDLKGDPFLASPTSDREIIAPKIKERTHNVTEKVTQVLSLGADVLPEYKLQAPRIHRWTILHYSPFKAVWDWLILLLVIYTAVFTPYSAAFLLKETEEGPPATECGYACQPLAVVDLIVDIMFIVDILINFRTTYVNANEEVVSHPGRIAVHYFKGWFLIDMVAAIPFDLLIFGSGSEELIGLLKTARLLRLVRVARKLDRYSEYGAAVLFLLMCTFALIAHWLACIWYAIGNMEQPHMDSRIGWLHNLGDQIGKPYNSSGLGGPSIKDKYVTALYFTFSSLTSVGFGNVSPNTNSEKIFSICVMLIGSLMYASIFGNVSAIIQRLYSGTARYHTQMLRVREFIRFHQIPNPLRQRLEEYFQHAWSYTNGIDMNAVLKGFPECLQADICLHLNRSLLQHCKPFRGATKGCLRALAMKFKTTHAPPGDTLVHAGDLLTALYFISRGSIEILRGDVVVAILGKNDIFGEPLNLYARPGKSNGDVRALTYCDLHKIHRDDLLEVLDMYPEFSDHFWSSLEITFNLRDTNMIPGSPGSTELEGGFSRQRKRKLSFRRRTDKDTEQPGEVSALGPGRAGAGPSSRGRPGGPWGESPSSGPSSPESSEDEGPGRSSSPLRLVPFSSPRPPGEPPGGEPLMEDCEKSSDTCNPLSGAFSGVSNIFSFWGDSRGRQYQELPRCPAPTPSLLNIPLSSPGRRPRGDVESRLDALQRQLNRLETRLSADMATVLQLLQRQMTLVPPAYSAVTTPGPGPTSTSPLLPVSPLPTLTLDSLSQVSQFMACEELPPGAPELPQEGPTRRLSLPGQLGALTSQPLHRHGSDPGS
Description: (§3) Supplement media-1.zip/Safety_Panel_Profile.csv, table | column: perc_inhibition

[14] = system: MERS-CoV; assay type: cell-based; details: Vero E6/TMPRSS2 MERS-CoV antiviral effect with P-gp inhibitor
[15] = target: T1, 5-HT transporter (h) (Homo sapiens, UniProt P31645); assay: In vitro CEREP profiling, 5-HT transporter (h) (antagonist radioligand); assay type: binding; details: test compound concentration 10 uM
T1 construct: purchased Eurofins Cerep (SafetyScreen44), recognised from the panel format
T1 sequence (P31645 whole entry): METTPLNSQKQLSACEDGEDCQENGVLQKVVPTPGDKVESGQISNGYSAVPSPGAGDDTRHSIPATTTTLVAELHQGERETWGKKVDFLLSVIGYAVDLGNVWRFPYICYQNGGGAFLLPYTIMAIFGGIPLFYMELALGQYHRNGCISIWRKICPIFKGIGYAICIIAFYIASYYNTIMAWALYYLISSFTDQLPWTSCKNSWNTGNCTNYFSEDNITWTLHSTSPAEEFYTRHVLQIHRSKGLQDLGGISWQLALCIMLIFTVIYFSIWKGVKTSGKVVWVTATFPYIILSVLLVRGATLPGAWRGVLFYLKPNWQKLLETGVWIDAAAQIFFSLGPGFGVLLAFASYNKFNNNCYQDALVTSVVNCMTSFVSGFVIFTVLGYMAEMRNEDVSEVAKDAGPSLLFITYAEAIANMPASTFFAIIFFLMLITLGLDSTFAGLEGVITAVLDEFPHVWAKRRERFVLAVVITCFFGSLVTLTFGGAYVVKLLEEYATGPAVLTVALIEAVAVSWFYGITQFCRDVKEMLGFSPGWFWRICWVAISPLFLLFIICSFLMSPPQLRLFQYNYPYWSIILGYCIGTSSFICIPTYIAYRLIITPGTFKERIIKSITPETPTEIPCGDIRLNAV
Description: as §3

[16] = protocol iPSC pneumocytes cytotoxicity

**Q.** For `CC(C)C(Nc1ncnc2[nH]ccc12)c1ccc2c(c1)S(=O)(=O)CCC2` (centres unmarked) [ASAP-0008327], which IC50 ([1]; IC50, nsp3-mac1 activity, Figures 1-3 and text) is on record?
**A.** 0.14 µM

**Q.** What about the perc_activity ([2]; kinase ALK(h), ATP 200 uM) of the same molecule?
**A.** 93%

**Q.** What about the perc_activity ([2]; kinase AMPKα1(h), ATP 45 uM) of the same molecule?
**A.** 94%

**Q.** And the perc_activity ([2]; kinase ASK1(h), ATP 200 uM)?
**A.** 108%

**Q.** What about the perc_activity ([2]; kinase Abl(h), ATP 45 uM) of the same molecule?
**A.** 93%

**Q.** What about the perc_activity ([2]; kinase Aurora-A(h), ATP 15 uM) of the same molecule?
**A.** 57%

**Q.** And the cc10 [3, 16]?
**A.** > 50.0 µM

**Q.** And the perc_max_measured [3, 16]?
**A.** 97.729% and 94.012%

**Q.** What about the perc_min_measured [3, 16] of the same molecule?
**A.** 81.556% and 88.355%

**Q.** And the CC50 [4]?
**A.** > 50 µM

**Q.** With `CC(C)[C@@H](Nc1ncnc2[nH]c(-c3cnn(C)c3C#N)cc12)c1ccc2c(n1)OCCO2` [ASAP-0008418] as the molecule, how does the perc_max_measured [3, 16] read?
**A.** 95.683%

**Q.** And the perc_min_measured [3, 16]?
**A.** 63.391%

**Q.** What about the CC50 ([5]; ASAP-0008327-001=ASAP-0008418-001) of the same molecule?
**A.** > 50 µM

**Q.** With `CNCc1cc(-c2cc3c(N[C@@H](c4ccc5c(c4)S(=O)(=O)CCC5)C(C)C)ncnc3[nH]2)co1` [ASAP-0011176] as the molecule, how does the CC50 [3] read?
**A.** > 50 µM

**Q.** What about the cc10 [3] of the same molecule?
**A.** > 50.0 µM

**Q.** What about the perc_max_measured [3] of the same molecule?
**A.** 97.309%

**Q.** And the perc_min_measured [3]?
**A.** 86.868%

**Q.** Which IC50 ([1]; HTRF IC50, Figure 6, tool compounds) does the source give for `CC(C)C(Nc1ncnc2[nH]c(C(=O)NC3CCN(C)C3)cc12)c1ccc2c(c1)S(=O)(=O)CCC2` (centres unmarked) [ASAP-0011198] here?
**A.** 0.065 µM

**Q.** What about the IC50 [6] of the same molecule?
**A.** 0.42 µM

**Q.** And the IC50 [7]?
**A.** > 50 µM

**Q.** What about the IC50 [8] of the same molecule?
**A.** > 50 µM

**Q.** And the IC50 [9]?
**A.** > 50 µM

**Q.** And the IC50 [10]?
**A.** > 50 µM

**Q.** And the IC50 [11]?
**A.** > 50 µM

**Q.** And the perc_max_measured [3]?
**A.** 99.57%

**Q.** What about the perc_min_measured [3] of the same molecule?
**A.** 87.748%

**Q.** What about the CC50 [12] of the same molecule?
**A.** > 5 µM

**Q.** And the CC50 at 24 h [4]?
**A.** > 20 µM

**Q.** And the inhibition at 10 µM [13]?
**A.** 7%

**Q.** Which results are given for `Cn1ncc(-c2cc3c(N[C@@H](c4ccc5c(n4)OCCO5)C(C)(C)C)ncnc3[nH]2)c1C#N` [ASAP-0011221]?
**A.** EC50 [14]: > 5 µM; EC90 [14]: > 5 µM; perc_max_measured ([14]; maximum measured response): 128.492%; perc_min_measured ([14]; minimum measured response): 99.797%; CC50 ([5]; ASAP-0008327-001=ASAP-0011221-001, 50.0, 1440 min): > 10 µM

**Q.** With `Cc1nn(C)cc1-c1cc2c(NC(c3ccc4c(c3)S(=O)(=O)CCC4)C(C)C)ncnc2[nH]1` (centres unmarked) [ASAP-0011446] as the molecule, how does the IC50 ([1]; HTRF IC50, Figure 4B, bioactive pure enantiomer) read?
**A.** 0.021 µM

**Q.** And the IC50 [6]?
**A.** 0.28 µM

**Q.** What about the CC50 [12] of the same molecule?
**A.** > 5 µM

**Q.** And the CC50 at 24 h [4]?
**A.** > 20 µM

**Q.** What about the inhibition at 10 µM [13] of the same molecule?
**A.** 3%

**Q.** With `C[C@H](C(=O)O)[C@@H](NC(=O)c1ncnc2[nH]ccc12)c1ccc(Br)cc1` [ASAP-0014722] as the molecule, how does the “perc_inhibition (% inhibition of the binding of a ligand specific for each target)” value [15] read?
**A.** 0%

**Q.** Which “perc_inhibition (% inhibition of the binding of a ligand specific for each target)” value [15] does the source give for `COc1ccc([C@H](Cc2nnn[nH]2)NC(=O)c2ncnc3[nH]ccc23)cc1` [ASAP-0015381] here?
**A.** -1%
